Measurements taken from ChEMBL document CHEMBL5385946, “Discovery of Dehydroabietylamine Derivatives as Antibacterial and Antifungal Agents” (J Nat Prod, 2024).
In brackets after ≈: the same amount, converted by molar mass. Activity calls are given as the source filed them. No cut-off for these calls is given here.

Key:
Alternaria solani = assay: Antifungal activity against Alternaria solani at 50 ug/ml; format: functional
Staphylococcus aureus = assay: Antibacterial activity against Staphylococcus aureus CMCC(B)26003 by agar dilution method; format: functional
Fusarium graminearum = assay: Antifungal activity against Gibberella zeae at 50 ug/ml; format: functional
Escherichia coli = assay: Antibacterial activity against Escherichia coli CMCC(B)44102 by agar dilution method; format: functional
Botrytis cinerea = assay: Antifungal activity against Botrytis cinerea at 50 ug/ml; format: functional
Rhizoctonia solani [1] = assay: Antifungal activity against Rhizoctonia solani at 50 ug/ml; format: functional
Rhizoctonia solani [2] = assay: Antifungal activity against Rhizoctonia solani; format: functional, organism-based
[3] = biological target: DNA topoisomerase II (Homo sapiens) (UniProt P11388+Q02880); assay: Inhibition of DNA topoisomerase II (unknown origin); format: protein assay
Rhizoctonia solani [4] = assay: Antifungal activity against Rhizoctonia solani assessed as appearance of irregular intertwining at 25 ug/ml by SEM analysis; format: functional, organism-based; settings: dose 25.0 µg/ml
Rhizoctonia solani [5] = assay: Antifungal activity against Rhizoctonia solani assessed as hyphal surface secretion at 25 ug/ml by SEM analysis; format: functional, organism-based; settings: dose 25.0 µg/ml
Rhizoctonia solani [6] = assay: Antifungal activity against Rhizoctonia solani assessed as appearance of wrinkling on mycelium surface incubated for 36 hrs; format: functional, organism-based
Rhizoctonia solani [7] = assay: Antifungal activity against Rhizoctonia solani assessed as appearance of disordered mycelium winding incubated for 36 hrs; format: functional, organism-based
Rhizoctonia solani [8] = assay: Antifungal activity against Rhizoctonia solani assessed as mycelium shrinkage incubated for 36 hrs; format: functional, organism-based
Rhizoctonia solani [9] = assay: Antifungal activity against Rhizoctonia solani assessed as appearance of twisted hyphae at 25 ug/ml by SEM analysis; format: functional, organism-based; settings: dose 25.0 µg/ml
Rhizoctonia solani [10] = assay: Antifungal activity against Rhizoctonia solani assessed as appearance of contracted surface at 25 ug/ml by SEM analysis; format: functional, organism-based; settings: dose 25.0 µg/ml
Rhizoctonia solani [11] = assay: Antifungal activity against Rhizoctonia solani assessed as protective effect at 200 ug/ml; format: functional; settings: dose 200 µg/ml
Rhizoctonia solani [12] = assay: Antifungal activity against Rhizoctonia solani assessed as appearance of rough surface at 25 ug/ml by SEM analysis; format: functional, organism-based; settings: dose 25.0 µg/ml
Rhizoctonia solani [13] = assay: Antifungal activity against Rhizoctonia solani assessed as appearance of shrunk hyphae at 25 ug/ml by SEM analysis; format: functional, organism-based; settings: dose 25.0 µg/ml
Rhizoctonia solani [14] = assay: Antifungal activity against Rhizoctonia solani assessed as protective effect at 400 ug/ml; format: functional; settings: dose 400 µg/ml
Rhizoctonia solani [15] = assay: Antifungal activity against Rhizoctonia solani assessed as appearance of irregular mycelium bending incubated for 36 hrs; format: functional, organism-based

Compound	inhibition at 50 µg/mL (Alternaria solani)	MIC (Staphylococcus aureus)	inhibition at 50 µg/mL (Fusarium graminearum)	MIC (Escherichia coli)	inhibition at 50 µg/mL (Botrytis cinerea)	inhibition at 50 µg/mL (Rhizoctonia solani [1])	other results
CC(C)c1ccc2c(c1)CC[C@H]1[C@@](CNC(=O)c3ccccn3)(Cc3cccc(C(F)(F)F)c3)CCC[C@]21C	1%	> 128 µg/mL	0%	64 µg/mL (≈ 120 µM)	0%	8.2%	–
CC(C)c1ccc2c(c1)CC[C@H]1[C@@](CNC(=O)c3ccccn3)(Cc3ccccc3)CCC[C@]21C	2.5%	> 128 µg/mL	3.8%	32 µg/mL (≈ 68.6 µM)	12.4%	1.9%	–
COc1ccccc1C[C@@]1(CN)CCC[C@]2(C)c3ccc(C(C)C)cc3CC[C@@H]12	16.9%	> 128 µg/mL	24.8%	32 µg/mL (≈ 81.7 µM)	51.4%	44.5%	–
O=C(Nc1ccccc1-c1ccc(Cl)cc1)c1cccnc1Cl [BOSCALID]	49.5%	–	32%	–	90.1%	80.2%	EC50 (Rhizoctonia solani [2]): 1.57 µg/mL (≈ 4.57 µM)
CN[C@H](CC(C)C)C(=O)N[C@H]1C(=O)N[C@@H](CC(N)=O)C(=O)N[C@H]2C(=O)N[C@H]3C(=O)N[C@H](C(=O)N[C@H](C(=O)O)c4cc(O)cc(O)c4-c4cc3ccc4O)[C@H](O)c3ccc(c(Cl)c3)Oc3cc2cc(c3O[C@@H]2O[C@H](CO)[C@@H](O)[C@H](O)[C@H]2O[C@H]2C[C@](C)(N)[C@H](O)[C@H](C)O2)Oc2ccc(cc2Cl)[C@H]1O [VANCOMYCIN]	–	–	–	128 µg/mL (≈ 88.3 µM)	–	–	–
CC(C)c1ccc2c(c1)CC[C@H]1[C@@](CNC(=O)c3ccccn3)(Cc3ccc(Cl)cc3)CCC[C@]21C	35%	8 µg/mL (≈ 16 µM)	45.7%	32 µg/mL (≈ 63.9 µM)	51.3%	55.3%	–
CCOC(=O)c1ccc(C[C@@]2(CNC(=O)c3ccccn3)CCC[C@]3(C)c4ccc(C(C)C)cc4CC[C@@H]23)cc1	1.2%	> 128 µg/mL	14.1%	32 µg/mL (≈ 59.4 µM)	0%	0%	–
CC(C)c1ccc2c(c1)CC[C@H]1[C@@](CNC(=O)c3ccccn3)(Cc3ccc(N)cc3)CCC[C@]21C	4%	32 µg/mL (≈ 66.4 µM)	3.5%	32 µg/mL (≈ 66.4 µM)	5.6%	28.5%	–
CC(C)c1ccc2c(c1)CC[C@H]1[C@@](CNC(=O)c3ccccn3)(Cc3ccccc3C#N)CCC[C@]21C	0%	> 128 µg/mL	0%	64 µg/mL (≈ 130 µM)	23.2%	29.3%	–
COc1ccccc1C[C@@]1(CNC(=O)c2ccccn2)CCC[C@]2(C)c3ccc(C(C)C)cc3CC[C@@H]12	3%	> 128 µg/mL	0%	32 µg/mL (≈ 64.4 µM)	20.6%	46.2%	–
CC(C)c1ccc2c(c1)CC[C@H]1[C@@](CN)(Cc3ccc(Cl)cc3)CCC[C@]21C	20.2%	8 µg/mL (≈ 20.2 µM)	25.9%	0.125 µg/mL (≈ 0.316 µM)	47.3%	80.6%	EC50 (Rhizoctonia solani [2]): 7.86 µg/mL (≈ 19.9 µM); INH [3]: 0.76 ng/mL
COc1ccc(C[C@@]2(CN)CCC[C@]3(C)c4ccc(C(C)C)cc4CC[C@@H]23)cc1	22.1%	> 128 µg/mL	34.8%	32 µg/mL (≈ 81.7 µM)	85.2%	95.6%	Activity (Rhizoctonia solani [4]): Active; EC50 (Rhizoctonia solani [2]): 5.21 µg/mL (≈ 13.3 µM); Activity (Rhizoctonia solani [5]): Active; Activity (Rhizoctonia solani [6]): Active; Activity (Rhizoctonia solani [7]): Active; Activity (Rhizoctonia solani [8]): Active; Activity (Rhizoctonia solani [9]): Active; Activity (Rhizoctonia solani [10]): Active; Activity (Rhizoctonia solani [11]): 27.7%; Activity (Rhizoctonia solani [12]): Active; Activity (Rhizoctonia solani [13]): Active; Activity (Rhizoctonia solani [14]): 76.9%; Activity (Rhizoctonia solani [15]): Active
COc1cccc(C[C@@]2(CNC(=O)c3ccccn3)CCC[C@]3(C)c4ccc(C(C)C)cc4CC[C@@H]23)c1	0%	16 µg/mL (≈ 32.2 µM)	0%	8 µg/mL (≈ 16.1 µM)	3.7%	5.2%	–
Cc1ccc(C[C@@]2(CNC(=O)c3ccccn3)CCC[C@]3(C)c4ccc(C(C)C)cc4CC[C@@H]23)cc1C	4.1%	> 128 µg/mL	0%	64 µg/mL (≈ 129 µM)	15.2%	7.4%	–
CC(C)c1ccc2c(c1)CC[C@H]1[C@@](CNC(=O)c3ccccn3)(Cc3ccc(OC(F)(F)F)cc3)CCC[C@]21C	0%	> 128 µg/mL	1.6%	64 µg/mL (≈ 116 µM)	0.9%	26.1%	–
CC(C)c1ccc2c(c1)CC[C@H]1[C@@](CNC(=O)c3ccccn3)(Cc3ccc(Br)cc3)CCC[C@]21C	1.1%	32 µg/mL (≈ 58.7 µM)	0%	4 µg/mL (≈ 7.33 µM)	20.1%	25.2%	–
CC(C)c1ccc2c(c1)CC[C@H]1[C@@](CN)(Cc3ccc(C(F)(F)F)cc3)CCC[C@]21C	11.6%	> 128 µg/mL	25.5%	16 µg/mL (≈ 37.2 µM)	36.2%	38.6%	–
OCC1=C[C@H](N[C@H]2C[C@H](CO)[C@@H](O[C@@H]3O[C@H](CO)[C@@H](O)[C@H](O)[C@H]3O)[C@H](O)[C@H]2O)[C@H](O)[C@@H](O)[C@@H]1O [VALIDAMYCIN]	–	–	–	–	–	–	Activity (Rhizoctonia solani [14]): 83.1%
CC(C)c1ccc2c(c1)CC[C@H]1[C@@](CNC(=O)c3ccccn3)(Cc3ccc(C(C)(C)C)cc3)CCC[C@]21C	31.6%	> 128 µg/mL	22.1%	8 µg/mL (≈ 15.3 µM)	38.4%	65.4%	–
O=C(O)c1cn(C2CC2)c2cc(N3CCNCC3)c(F)cc2c1=O [CIPROFLOXACIN]	–	> 128 µg/mL	–	–	–	–	INH [3]: 1.11 ng/mL
CC(C)c1ccc2c(c1)CC[C@H]1[C@@](CN)(Cc3ccc(C(C)(C)C)cc3)CCC[C@]21C	7.9%	> 128 µg/mL	3.6%	16 µg/mL (≈ 38.3 µM)	32.4%	65%	–
CC(C)c1ccc2c(c1)CC[C@H]1[C@@](CNC(=O)c3ccccn3)(Cc3ccc(F)cc3)CCC[C@]21C	1.7%	32 µg/mL (≈ 66 µM)	0%	4 µg/mL (≈ 8.25 µM)	0%	1.2%	–
CC(C)c1ccc2c(c1)CC[C@H]1[C@@](CNC(=O)c3ccccn3)(Cc3ccc(C(F)(F)F)cc3)CCC[C@]21C	1.7%	64 µg/mL (≈ 120 µM)	0%	64 µg/mL (≈ 120 µM)	1.1%	16.3%	–
CC(C)c1ccc2c(c1)CC[C@H]1[C@@](CNC(=O)c3ccccn3)(Cc3ccc(C#N)cc3)CCC[C@]21C	5.5%	> 128 µg/mL	0%	64 µg/mL (≈ 130 µM)	30.6%	28.5%	–
CC(C)c1ccc2c(c1)CC[C@H]1[C@@](CNC(=O)c3ccccn3)(Cc3cccc(C#N)c3)CCC[C@]21C	3%	> 128 µg/mL	4.5%	32 µg/mL (≈ 65.1 µM)	6.3%	5.8%	–
COc1ccc(C[C@@]2(CNC(=O)c3ccccn3)CCC[C@]3(C)c4ccc(C(C)C)cc4CC[C@@H]23)cc1	4.9%	> 128 µg/mL	4.5%	64 µg/mL (≈ 129 µM)	22.2%	48.6%	–
